From patent US7622492B2, “Pyrazolones as inhibitors of 11β-hydroxysteroid dehydrogenase” (Hoffmann-La Roche Inc., priority 2005, dated 2009)

Legend:
human 11betaHSD1 = biological target: T1, human 11betaHSD1 (Homo sapiens, UniProt P28845); experiment: Cell-based assay: HEK-293 cells stably transfected with human 11betaHSD1, cortisol by competitive ELISA; conditions: HEK-293 cells stably transfected with full-length human 11betaHSD1 cDNA, cortisone 100 nM, 1 hour
T1 construct: HEK-293 cells stably transfected with full-length human 11betaHSD1 cDNA; expressed in transfected cells; host or cells: HEK-293
T1 sequence (P28845 whole entry): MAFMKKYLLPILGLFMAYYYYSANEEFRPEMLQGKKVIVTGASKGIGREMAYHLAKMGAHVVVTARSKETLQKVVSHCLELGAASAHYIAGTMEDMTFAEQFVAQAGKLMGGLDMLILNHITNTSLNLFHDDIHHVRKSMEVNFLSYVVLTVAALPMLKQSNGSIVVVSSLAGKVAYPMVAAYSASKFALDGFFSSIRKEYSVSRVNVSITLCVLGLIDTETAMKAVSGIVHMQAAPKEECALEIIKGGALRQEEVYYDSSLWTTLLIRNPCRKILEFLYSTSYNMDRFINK
Experimental: The following day, serially diluted 11bHSD1 inhibitor compounds dissolved in DMSO were added to plating media supplemented with BSA (2 mg/ml final). The final DMSO concentration was 1%. Media was aspirated from plates, and compounds in media were added to each well. The plates were incubated at 37° C. for 1 hour to allow for cellular uptake of compounds. 10 μL of substrate (cortisone) was then added to each well (100 nM final concentration) and incubated for 1 hour at 37° C. Plates were then transferred to ice and 80 μL of media transferred to a 96-well plate and stored at −30° C.
Plates were washed with PBS, 0.1% Tween-20, then washed with PBS alone. Plates were blocked with Blocking Buffer (Tropix Cat# AI075) for 2 hours at room temperature. The plates were then washed as previously described. Assay samples were thawed, diluted 1:4 in DMEM, 2 mg/mL BSA, 1% DMSO, and 24 μL was transferred to wells of a pre-coated 384-well plate, as well as varying amounts of cortisol standard. To each well, 12 μL of cortisol-conjugate and 12 μL of anti-cortisol EIA antibody were added and incubated 2 hrs at room temperature on a orbital plate shaker. The wells were then emptied by inversion, then washed three times with 100 μL of Wash Buffer (Tropix), and then 2 times with 100 μL of Assay Buffer (Tropix). 60 μL of CDP-STAR (Tropix) was added to each well and incubated 10 minutes at room temperature. Chemiluminescence was measured using a Victor V Reader (Perkin Elmer). Cortisol in each sample was interpolated from a standard curve generated with known amounts of cortisol. IC50 values were calculated using the curve fitting software XLFit3 (IDBS).

human HSD1 = human HSD1 (Homo sapiens, UniProt P28845); experiment: In vitro inhibition of purified human HSD1 (time-resolved fluorescence cortisol detection); format: biochemical; conditions: purified human HSD1, cortisone substrate, 30 min; read-out: hHSD1 IC50
Sequence of human HSD1 (P28845 whole entry): as above
Experimental: Purified human HSD1 was diluted in 50 mM Tris-HCl, 100 mM NaCl, 0.1 mg/ml BSA, 0.02% Lubrol, 20 mM MgCl2, 10 mM glucose 6-phosphate, 0.4 mM NADPH, 60 U/ml glucose 6-phosphate dehydrogenase to a concentration of 1.5 μg/ml (Enzyme Solution). […] Testing compounds (40 μM) in DMSO was diluted 3 fold in series in DMSO and further diluted 20 fold in Substrate Solution. Enzyme Solution (10 μl/well) was added into 384 well microtiter plates followed by diluted compound solutions (10 μl/well) and mixed well. Samples were then incubated at […] for 30 min. EDTA/biotin-cortisol solution (10 μl/well) in 28 mM EDTA, […], 50 mM Tris-HCl, 100 mM NaCl was then added followed by 5 ul/well of anti-cortisol antibody (3.2 μg/ml) in 50 mM Tris-HCl, 100 mM NaCl, 0.1 mg/ml BSA and the solution was incubated at 37 degrees for 30 min. […] Signals were quantitated by reading time-resolved fluorescence on a Victor 5 reader (Wallac).

SMILES | IC50 (human 11betaHSD1) [µM] | IC50 (human HSD1) [µM]
Cn1c2c(c(=O)n1-c1cc(F)ccc1C(F)(F)F)[C@H]1CC[C@]2(C)C1(C)C [Example 133, (4S,7R)-2-(5-Fluoro-2-trifluoromethyl-phenyl)-1,7,8,8-tetramethyl-1,2,4,5,6,7-hexahydro-4,7-methano-indazol-3-one] | 0.021 | 
CC(C)CCn1c2c(c(=O)n1-c1ccc(F)cc1F)[C@H]1CC[C@]2(C)C1(C)C [Example 87, (4S,7R)-2-(2,4-Difluoro-phenyl)-7,8,8-trimethyl-1-(3-methyl-butyl)-1,2,4,5,6,7-hexahydro-4,7-methano-indazol-3-one] | 0.014 | 
COc1ncccc1Cn1c2c(c(=O)n1-c1ccc(F)cc1F)[C@@H]1CC[C@@]2(C)C1(C)C [Example 113, (4R,7S)-2-(2,4-Difluoro-phenyl)-1-(2-methoxy-pyridin-3-ylmethyl)-7,8,8-trimethyl-1,2,4,5,6,7-hexahydro-4,7-methano-indazol-3-one] | 0.036 | 
Cn1c2c(c(=O)n1-c1ccc3ccccc3c1)[C@H]1CC[C@]2(C)C1(C)C [Example 144, (4S,7R)-1,7,8,8-Tetramethyl-2-naphthalen-2-yl-1,2,4,5,6,7-hexahydro-4,7-methano-indazol-3-one] | 0.024 | 
CC1(C)[C@H]2CC[C@]1(C)c1c2c(=O)n(-c2ccc(F)cc2Cl)n1Cc1ccc(F)cc1F [Example 122, (4R,7S)-2-(2-Chloro-4-fluoro-phenyl)-1-(2,4-difluoro-benzyl)-7,8,8-trimethyl-1,2,4,5,6,7-hexahydro-4,7-methano-indazol-3-one] | 0.021 | 
Cc1cccc(-n2c(=O)c3c(n2Cc2ccccc2)[C@@]2(C)CC[C@@H]3C2(C)C)c1C [Example 137, (4R,7S)-1-Benzyl-2-(2,3-dimethyl-phenyl)-7,8,8-trimethyl-1,2,4,5,6,7-hexahydro-4,7-methano-indazol-3-one] | 0.004 | 
CC(C)(C)c1ccc(Cn2c3c(c(=O)n2-c2ccc(F)cc2F)[C@H]2CC[C@]3(C)C2(C)C)cc1 [Example 98, (4S,7R)-1-(4-tert-Butyl-benzyl)-2-(2,4-difluoro-phenyl)-7,8,8-trimethyl-1,2,4,5,6,7-hexahydro-4,7-methano-indazol-3-one] | 0.028 | 
Cn1c2c(c(=O)n1-c1cccc(-c3ccccc3)c1)[C@H]1CC[C@]2(C)C1(C)C [Example 43, (4S,7R)-2-Biphenyl-3-yl-1,7,8,8-tetramethyl-1,2,4,5,6,7-hexahydro-4,7-methano-indazol-3-one] | 0.025 | 0.059
CC1(C)[C@H]2CC[C@]1(C)c1c2c(=O)n(-c2ccc(F)cc2Cl)n1Cc1ccccc1 [Example 120, (4R,7S)-1-Benzyl-2-(2-chloro-4-fluoro-phenyl)-7,8,8-trimethyl-1,2,4,5,6,7-hexahydro-4,7-methano-indazol-3-one] | 0.018 | 
Cn1c2c(c(=O)n1Cc1ccc(C(N)=O)cc1)[C@H]1CC[C@]2(C)C1(C)C [Example 39, (4S,7R)-4-(1,7,8,8-Tetramethyl-3-oxo-1,3,4,5,6,7-hexahydro-4,7-methano-indazol-2-ylmethyl)-benzamide] | 0.243 | 0.101
CC1(C)[C@H]2CC[C@]1(C)c1c2c(=O)n(-c2ccc3ccccc3c2)n1Cc1ccccc1 [Example 145, (4R,7S)-1-Benzyl-7,8,8-trimethyl-2-naphthalen-2-yl-1,2,4,5,6,7-hexahydro-4,7-methano-indazol-3-one] | 0.021 | 
Cn1c2c(c(=O)n1-c1ccccc1F)[C@H]1CC[C@]2(C)C1(C)C [Example 12, (4S,7R)-2-(2-Fluoro-phenyl)-1,7,8,8-tetramethyl-1,2,4,5,6,7-hexahydro-4,7-methano-indazol-3-one] | 0.019 | 0.291
Cc1cccc(-n2c(=O)c3c(n2C)[C@]2(C)CC[C@H]3C2(C)C)c1C [Example 21, (4S,7R)-2-(2,3-Dimethyl-phenyl)-1,7,8,8-tetramethyl-1,2,4,5,6,7-hexahydro-4,7-methano-indazol-3-one] | 0.019 | 0.01
Cn1c2c(c(=O)n1-c1cc(C(F)(F)F)ccc1F)[C@H]1CC[C@]2(C)C1(C)C [Example 132, (4S,7R)-2-(2-Fluoro-5-trifluoromethyl-phenyl)-1,7,8,8-tetramethyl-1,2,4,5,6,7-hexahydro-4,7-methano-indazol-3-one] | 0.21 | 
CC1(C)[C@@H]2CC[C@@]1(C)c1c2c(=O)n(-c2ccccc2)n1CCc1ccccc1 [Example 66, (4S,7R)-7,8,8-Trimethyl-1-phenethyl-2-phenyl-1,2,4,5,6,7-hexahydro-4,7-methano-indazol-3-one] | 0.019 | 
CC1(C)[C@@H]2CC[C@@]1(C)c1c2c(=O)n(-c2ccc(F)cc2Cl)n1Cc1ccc(F)cc1F [Example 123, (4S,7R)-2-(2-Chloro-4-fluoro-phenyl)-1-(2,4-difluoro-benzyl)-7,8,8-trimethyl-1,2,4,5,6,7-hexahydro-4,7-methano-indazol-3-one] | 0.009 | 
COc1cccc(Cn2c(=O)c3c(n2C)[C@]2(C)CC[C@H]3C2(C)C)c1 [Example 34, (4S,7R)-2-(3-Methoxy-benzyl)-1,7,8,8-tetramethyl-1,2,4,5,6,7-hexahydro-4,7-methano-indazol-3-one] | 0.134 | 0.472
Cn1c2c(c(=O)n1-c1ccc(O)cc1)[C@H]1CC[C@]2(C)C1(C)C [Example 76, (4S,7R)-2-(4-Hydroxy-phenyl)-1,7,8,8-tetramethyl-1,2,4,5,6,7-hexahydro-4,7-methano-indazol-3-one] | 0.02 | 
Cn1c2c(c(=O)n1Cc1ccc(F)cc1C(F)(F)F)[C@H]1CC[C@]2(C)C1(C)C [Example 37, (4S,7R)-2-(4-Fluoro-2-trifluoromethyl-benzyl)-1,7,8,8-tetramethyl-1,2,4,5,6,7-hexahydro-4,7-methano-indazol-3-one] | 0.027 | 
Cn1c2c(c(=O)n1-c1ccc(F)cc1)[C@H]1CC[C@]2(C)C1(C)C [Example 17, (4S,7R)-2-(4-Fluoro-phenyl)-1,7,8,8-tetramethyl-1,2,4,5,6,7-hexahydro-4,7-methano-indazol-3-one] | 0.11 | 1.72
Cn1c2c(c(=O)n1-c1cccc(Cl)c1Cl)[C@H]1CC[C@]2(C)C1(C)C [Example 126, (4S,7R)-2-(2,3-Dichloro-phenyl)-1,7,8,8-tetramethyl-1,2,4,5,6,7-hexahydro-4,7-methano-indazol-3-one] | 0.006 | 
CC1(C)[C@@H]2CC[C@@]1(C)c1c2c(=O)n(-c2ccc(F)cc2F)n1Cc1ccc(C(F)(F)F)cc1 [Example 103, (4S,7R)-2-(2,4-Difluoro-phenyl)-7,8,8-trimethyl-1-(4-trifluoromethyl-benzyl)-1,2,4,5,6,7-hexahydro-4,7-methano-indazol-3-one] | 0.011 | 
Cn1c2c(c(=O)n1Cc1cccc(F)c1)[C@H]1CC[C@]2(C)C1(C)C [Example 32, (4S,7R)-2-(3-Fluoro-benzyl)-1,7,8,8-tetramethyl-1,2,4,5,6,7-hexahydro-4,7-methano-indazol-3-one] | 0.06 | 0.023
CC(C)c1cccc(-n2c(=O)c3c(n2C)[C@]2(C)CC[C@H]3C2(C)C)c1 [Example 75, (4S,7R)-2-(3-Isopropyl-phenyl)-1,7,8,8-tetramethyl-1,2,4,5,6,7-hexahydro-4,7-methano-indazol-3-one] | 0.017 | 
Cc1nc(Cn2c(=O)c3c(n2Cc2ccccc2)[C@@]2(C)CC[C@@H]3C2(C)C)cs1 [Example 150, (4R,7S)-1-Benzyl-7,8,8-trimethyl-2-(2-methyl-thiazol-4-ylmethyl)-1,2,4,5,6,7-hexahydro-4,7-methano-indazol-3-one] | 0.208 | 
COc1ccc(Cn2c3c(c(=O)n2-c2ccc(F)cc2F)[C@H]2CC[C@]3(C)C2(C)C)cc1 [Example 99, (4S,7R)-2-(2,4-Difluoro-phenyl)-1-(4-methoxy-benzyl)-7,8,8-trimethyl-1,2,4,5,6,7-hexahydro-4,7-methano-indazol-3-one] | 0.014 | 
